Measured values reported in ChEMBL document CHEMBL3797113, “Structural requirements of acylated Gly-l-Ala-d-Glu analogs for activation of the innate immune receptor NOD2” (Eur J Med Chem, 2016).
The source made the active and inactive calls. No cut-off for these calls is given here.

biological target: T1, Nucleotide-binding oligomerization domain-containing protein 2 (Homo sapiens, UniProt Q9HC29); test: Agonist activity at NOD2 receptor (unknown origin) expressed in HEK-Blue cells assessed as NF-kappaB transcriptional activity at 20 uM after 18 hrs by secreted embryonic alkaline phosphatase reporter gene assay relative to untreated control; format: cell-based; details: not given
T1 sequence (Q9HC29 whole entry, the tested form may be a part): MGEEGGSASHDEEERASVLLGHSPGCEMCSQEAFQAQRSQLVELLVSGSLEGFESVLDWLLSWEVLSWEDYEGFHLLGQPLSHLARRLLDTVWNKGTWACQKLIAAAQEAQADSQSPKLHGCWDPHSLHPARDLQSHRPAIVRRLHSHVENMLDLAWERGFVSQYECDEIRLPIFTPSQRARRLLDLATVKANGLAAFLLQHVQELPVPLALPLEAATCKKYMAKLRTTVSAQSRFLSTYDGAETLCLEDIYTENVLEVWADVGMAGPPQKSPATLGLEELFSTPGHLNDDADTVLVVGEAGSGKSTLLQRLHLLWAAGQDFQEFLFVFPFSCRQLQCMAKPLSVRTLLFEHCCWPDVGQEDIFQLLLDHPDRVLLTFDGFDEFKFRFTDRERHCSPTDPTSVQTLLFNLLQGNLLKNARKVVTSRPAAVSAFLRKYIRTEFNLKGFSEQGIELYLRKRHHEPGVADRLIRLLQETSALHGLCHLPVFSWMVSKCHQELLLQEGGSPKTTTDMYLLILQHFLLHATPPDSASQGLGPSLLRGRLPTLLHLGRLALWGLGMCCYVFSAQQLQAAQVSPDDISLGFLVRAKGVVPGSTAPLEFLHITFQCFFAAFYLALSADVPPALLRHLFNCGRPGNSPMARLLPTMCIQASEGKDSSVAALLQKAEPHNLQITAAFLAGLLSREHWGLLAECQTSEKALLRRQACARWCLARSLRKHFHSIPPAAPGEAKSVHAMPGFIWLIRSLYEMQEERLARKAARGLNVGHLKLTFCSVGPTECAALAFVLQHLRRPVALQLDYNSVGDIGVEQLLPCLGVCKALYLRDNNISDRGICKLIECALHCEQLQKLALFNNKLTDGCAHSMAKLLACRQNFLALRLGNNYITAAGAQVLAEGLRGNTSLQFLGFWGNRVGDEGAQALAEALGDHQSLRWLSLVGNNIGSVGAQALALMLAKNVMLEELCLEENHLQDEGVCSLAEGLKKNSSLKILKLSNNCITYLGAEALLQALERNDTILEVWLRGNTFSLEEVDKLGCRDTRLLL

| Compound | fold change (FC) | Activity |
| --- | --- | --- |
| C[C@H](NC(=O)CNC(=O)c1cc2ccccc2[nH]1)C(=O)N[C@H](CCC(=O)OCc1ccccc1)C(=O)OCc1ccccc1 | 8.82 |  |
| CCOC(=O)CC[C@@H](NC(=O)[C@H](C)NC(=O)CNC(=O)C(=O)Nc1ccccc1)C(=O)OCC | 1.15 |  |
| CCOC(=O)CC[C@@H](NC(=O)[C@H](C)NC(=O)CNC(=O)c1cc2ccccc2n1Cc1ccc(F)cc1)C(=O)OCC | 2.8 |  |
| CCOC(=O)CC[C@@H](NC(=O)[C@H](C)NC(=O)CNC(=O)c1cc2ccc(-c3ccccc3)cc2[nH]1)C(=O)OCC | 11.2 |  |
| CCOC(=O)CC[C@@H](NC(=O)[C@H](C)NC(=O)CNC(=O)C1Cc2ccccc2N1C(=O)OC(C)(C)C)C(=O)OCC (some centres not stated) | 2.58 |  |
| CCOC(=O)CC[C@@H](NC(=O)[C@H](C)NC(=O)CNC(=O)c1cc2c(-c3ccccc3)cccc2[nH]1)C(=O)OCC | 2.95 |  |
| CCOC(=O)CC[C@@H](NC(=O)[C@H](C)NC(=O)CNC(=O)C1Cc2ccccc2N1)C(=O)OCC (some centres not stated) | 3.17 |  |
| CC(=O)N[C@H]1C(O)O[C@H](CO)[C@@H](O)[C@@H]1O[C@H](C)C(=O)N[C@@H](C)C(=O)N[C@H](CCC(=O)O)C(N)=O (some centres not stated) [MURAMYL DIPEPTIDE] | 11.5 |  |
| CCOC(=O)CC[C@@H](NC(=O)[C@H](C)NC(=O)CNC(=O)c1cc2cc(-c3ccccc3)ccc2[nH]1)C(=O)OCC | 10.4 |  |
| CCOC(=O)CC[C@@H](NC(=O)[C@H](C)NC(=O)CNC(=O)c1cc2cccc(-c3ccccc3)c2[nH]1)C(=O)OCC | 6.51 |  |
| Cc1nc(CC[C@@H](NC(=O)[C@H](C)NC(=O)CNC(=O)c2cc3ccccc3[nH]2)c2noc(C)n2)no1 |  | inactive |
| C[C@H](NC(=O)CNC(=O)c1cc2ccccc2[nH]1)C(=O)N[C@H](CCC(=O)O)C(=O)O | 2.1 |  |

Other lines, results leading:

| fold change (FC) | Activity | Compound |
| --- | --- | --- |
| 2.14 |  | CCOC(=O)CC[C@@H](NC(=O)[C@H](C)NC(=O)CNC(=O)c1cc2ccccc2n1C)C(=O)OCC |
| 3.02 |  | CCOC(=O)CC[C@@H](NC(=O)[C@H](C)NC(=O)CNC(=O)c1cc2cc(F)ccc2[nH]1)C(=O)OCC |
| 1.41 |  | CCOC(=O)CC[C@@H](NC(=O)[C@H](C)NC(=O)CCNC(=O)c1cc2ccccc2[nH]1)C(=O)OCC |
| 1.22 |  | CCOC(=O)CC[C@@H](NC(=O)[C@H](C)NC(=O)CNC(=O)c1c[nH]c2ccccc12)C(=O)OCC |
| 4.58 |  | CCOC(=O)CC[C@@H](NC(=O)[C@H](C)NC(=O)CNC(=O)c1cc2cc(Br)ccc2[nH]1)C(=O)OCC |
| 7.37 |  | CCOC(=O)CC[C@@H](NC(=O)[C@H](C)NC(=O)CNC(=O)/C=C/c1ccccc1)C(=O)OCC |
| 5.2 |  | CCOC(=O)CC[C@@H](NC(=O)[C@H](C)NC(=O)CNC(=O)c1cc2ccccc2[nH]1)C(=O)OCC |
| 1.08 |  | CCOC(=O)CC[C@@H](NC(=O)[C@H](C)NC(=O)CNC(=O)c1ccc[nH]1)C(=O)OCC |

biological target: T2, Nucleotide-binding oligomerization domain-containing protein 1 (Homo sapiens) (UniProt Q9Y239); test: Agonist activity at NOD1 receptor (unknown origin) expressed in HEK-Blue cells assessed as NF-kappaB transcriptional activity at 20 uM after 18 hrs by secreted embryonic alkaline phosphatase reporter gene assay; format: cell-based; details: not given
T2 sequence (whole entry): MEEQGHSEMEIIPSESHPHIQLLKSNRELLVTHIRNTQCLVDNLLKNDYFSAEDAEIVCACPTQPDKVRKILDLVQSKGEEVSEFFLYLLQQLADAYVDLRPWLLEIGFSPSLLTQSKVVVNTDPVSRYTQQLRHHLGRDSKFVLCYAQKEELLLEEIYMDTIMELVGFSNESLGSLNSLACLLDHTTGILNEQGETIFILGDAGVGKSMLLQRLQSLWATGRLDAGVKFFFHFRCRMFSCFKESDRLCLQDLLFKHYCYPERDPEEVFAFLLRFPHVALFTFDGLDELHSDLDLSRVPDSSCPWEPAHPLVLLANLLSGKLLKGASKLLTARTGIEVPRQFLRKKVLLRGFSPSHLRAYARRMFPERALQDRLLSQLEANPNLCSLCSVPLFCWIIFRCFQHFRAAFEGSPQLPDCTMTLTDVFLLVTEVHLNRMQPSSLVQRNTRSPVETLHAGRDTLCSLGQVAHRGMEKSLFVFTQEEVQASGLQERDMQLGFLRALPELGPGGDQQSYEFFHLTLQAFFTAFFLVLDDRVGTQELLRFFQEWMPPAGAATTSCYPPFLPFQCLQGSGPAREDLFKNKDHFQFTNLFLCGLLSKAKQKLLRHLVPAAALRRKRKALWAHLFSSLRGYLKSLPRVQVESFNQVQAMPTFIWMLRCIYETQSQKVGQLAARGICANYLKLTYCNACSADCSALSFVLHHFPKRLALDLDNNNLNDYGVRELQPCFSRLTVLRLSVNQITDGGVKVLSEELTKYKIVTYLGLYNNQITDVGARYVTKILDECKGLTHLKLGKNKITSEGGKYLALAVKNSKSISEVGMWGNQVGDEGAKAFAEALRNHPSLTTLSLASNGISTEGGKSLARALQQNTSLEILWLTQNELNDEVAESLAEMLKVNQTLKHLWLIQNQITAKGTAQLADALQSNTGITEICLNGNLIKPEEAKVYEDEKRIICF

| Compound | Activity |
| --- | --- |
| C[C@H](NC(=O)CNC(=O)c1cc2ccccc2[nH]1)C(=O)N[C@H](CCC(=O)OCc1ccccc1)C(=O)OCc1ccccc1 | inactive |
| CCOC(=O)CC[C@@H](NC(=O)[C@H](C)NC(=O)CNC(=O)C(=O)Nc1ccccc1)C(=O)OCC | inactive |
| CCOC(=O)CC[C@@H](NC(=O)[C@H](C)NC(=O)CNC(=O)c1cc2ccccc2n1Cc1ccc(F)cc1)C(=O)OCC | inactive |
| CCOC(=O)CC[C@@H](NC(=O)[C@H](C)NC(=O)CNC(=O)c1cc2ccc(-c3ccccc3)cc2[nH]1)C(=O)OCC | inactive |
| CCOC(=O)CC[C@@H](NC(=O)[C@H](C)NC(=O)CNC(=O)C1Cc2ccccc2N1C(=O)OC(C)(C)C)C(=O)OCC (some centres not stated) | inactive |
| CCOC(=O)CC[C@@H](NC(=O)[C@H](C)NC(=O)CNC(=O)c1cc2c(-c3ccccc3)cccc2[nH]1)C(=O)OCC | inactive |
| CCOC(=O)CC[C@@H](NC(=O)[C@H](C)NC(=O)CNC(=O)C1Cc2ccccc2N1)C(=O)OCC (some centres not stated) | inactive |
| CC(=O)N[C@H]1C(O)O[C@H](CO)[C@@H](O)[C@@H]1O[C@H](C)C(=O)N[C@@H](C)C(=O)N[C@H](CCC(=O)O)C(N)=O (some centres not stated) [MURAMYL DIPEPTIDE] | inactive |
| CCOC(=O)CC[C@@H](NC(=O)[C@H](C)NC(=O)CNC(=O)c1cc2cc(-c3ccccc3)ccc2[nH]1)C(=O)OCC | inactive |
| CCOC(=O)CC[C@@H](NC(=O)[C@H](C)NC(=O)CNC(=O)c1cc2cccc(-c3ccccc3)c2[nH]1)C(=O)OCC | inactive |
| Cc1nc(CC[C@@H](NC(=O)[C@H](C)NC(=O)CNC(=O)c2cc3ccccc3[nH]2)c2noc(C)n2)no1 | inactive |
| C[C@H](NC(=O)CNC(=O)c1cc2ccccc2[nH]1)C(=O)N[C@H](CCC(=O)O)C(=O)O | inactive |

Now from value to compound:

| Activity | Compound |
| --- | --- |
| inactive | CCOC(=O)CC[C@@H](NC(=O)[C@H](C)NC(=O)CNC(=O)c1cc2ccccc2n1C)C(=O)OCC |
| inactive | CCOC(=O)CC[C@@H](NC(=O)[C@H](C)NC(=O)CNC(=O)c1cc2cc(F)ccc2[nH]1)C(=O)OCC |
| inactive | CCOC(=O)CC[C@@H](NC(=O)[C@H](C)NC(=O)CCNC(=O)c1cc2ccccc2[nH]1)C(=O)OCC |
| inactive | CCOC(=O)CC[C@@H](NC(=O)[C@H](C)NC(=O)CNC(=O)c1c[nH]c2ccccc12)C(=O)OCC |
| inactive | CCOC(=O)CC[C@@H](NC(=O)[C@H](C)NC(=O)CNC(=O)c1cc2cc(Br)ccc2[nH]1)C(=O)OCC |
| inactive | CCOC(=O)CC[C@@H](NC(=O)[C@H](C)NC(=O)CNC(=O)/C=C/c1ccccc1)C(=O)OCC |
| inactive | CCOC(=O)CC[C@@H](NC(=O)[C@H](C)NC(=O)CNC(=O)c1cc2ccccc2[nH]1)C(=O)OCC |
| inactive | CCOC(=O)CC[C@@H](NC(=O)[C@H](C)NC(=O)CNC(=O)c1ccc[nH]1)C(=O)OCC |

biological target: T1, Nucleotide-binding oligomerization domain-containing protein 2; test: Agonist activity at NOD2 receptor (unknown origin) expressed in HEK-Blue cells assessed as NF-kappaB transcriptional activity after 18 hrs by secreted embryonic alkaline phosphatase reporter gene assay; format: cell-based; details: not given

| Activity | EC50 [nM] | Compound |
| --- | --- | --- |
| Dose-dependent effect | 2880 | CCOC(=O)CC[C@@H](NC(=O)[C@H](C)NC(=O)CNC(=O)c1cc2ccc(-c3ccccc3)cc2[nH]1)C(=O)OCC |
| Dose-dependent effect | 46 | CC(=O)N[C@H]1C(O)O[C@H](CO)[C@@H](O)[C@@H]1O[C@H](C)C(=O)N[C@@H](C)C(=O)N[C@H](CCC(=O)O)C(N)=O (some centres not stated) [MURAMYL DIPEPTIDE] |

system: not listed separately; test: Cytotoxicity against NOD2 expressing HEK-Blue cells assessed as residual metabolic activity at 20 uM after 18 hrs by MTS assay relative to control; format: ADME, cell-based; details: human, read-out: Activity

| Compound | viability at 18 h, 20 µM [%] |
| --- | --- |
| C[C@H](NC(=O)CNC(=O)c1cc2ccccc2[nH]1)C(=O)N[C@H](CCC(=O)OCc1ccccc1)C(=O)OCc1ccccc1 | ≥ 80 |
| CCOC(=O)CC[C@@H](NC(=O)[C@H](C)NC(=O)CNC(=O)c1cc2ccccc2n1C)C(=O)OCC | ≥ 80 |
| CCOC(=O)CC[C@@H](NC(=O)[C@H](C)NC(=O)CNC(=O)C(=O)Nc1ccccc1)C(=O)OCC | ≥ 80 |
| CCOC(=O)CC[C@@H](NC(=O)[C@H](C)NC(=O)CNC(=O)c1cc2ccccc2n1Cc1ccc(F)cc1)C(=O)OCC | ≥ 80 |
| CCOC(=O)CC[C@@H](NC(=O)[C@H](C)NC(=O)CNC(=O)c1cc2cc(F)ccc2[nH]1)C(=O)OCC | ≥ 80 |
| CCOC(=O)CC[C@@H](NC(=O)[C@H](C)NC(=O)CNC(=O)c1cc2ccc(-c3ccccc3)cc2[nH]1)C(=O)OCC | ≥ 80 |
| CCOC(=O)CC[C@@H](NC(=O)[C@H](C)NC(=O)CNC(=O)C1Cc2ccccc2N1C(=O)OC(C)(C)C)C(=O)OCC (some centres not stated) | ≥ 80 |
| CCOC(=O)CC[C@@H](NC(=O)[C@H](C)NC(=O)CNC(=O)c1cc2c(-c3ccccc3)cccc2[nH]1)C(=O)OCC | ≥ 80 |
| CCOC(=O)CC[C@@H](NC(=O)[C@H](C)NC(=O)CNC(=O)C1Cc2ccccc2N1)C(=O)OCC (some centres not stated) | ≥ 80 |
| CCOC(=O)CC[C@@H](NC(=O)[C@H](C)NC(=O)CCNC(=O)c1cc2ccccc2[nH]1)C(=O)OCC | ≥ 80 |
| CCOC(=O)CC[C@@H](NC(=O)[C@H](C)NC(=O)CNC(=O)c1c[nH]c2ccccc12)C(=O)OCC | ≥ 80 |
| CCOC(=O)CC[C@@H](NC(=O)[C@H](C)NC(=O)CNC(=O)c1cc2cc(Br)ccc2[nH]1)C(=O)OCC | ≥ 80 |
| CCOC(=O)CC[C@@H](NC(=O)[C@H](C)NC(=O)CNC(=O)c1cc2cc(-c3ccccc3)ccc2[nH]1)C(=O)OCC | ≥ 80 |
| CCOC(=O)CC[C@@H](NC(=O)[C@H](C)NC(=O)CNC(=O)c1cc2cccc(-c3ccccc3)c2[nH]1)C(=O)OCC | ≥ 80 |
| Cc1nc(CC[C@@H](NC(=O)[C@H](C)NC(=O)CNC(=O)c2cc3ccccc3[nH]2)c2noc(C)n2)no1 | ≥ 80 |
| CCOC(=O)CC[C@@H](NC(=O)[C@H](C)NC(=O)CNC(=O)/C=C/c1ccccc1)C(=O)OCC | ≥ 80 |
| C[C@H](NC(=O)CNC(=O)c1cc2ccccc2[nH]1)C(=O)N[C@H](CCC(=O)O)C(=O)O | ≥ 80 |
| CCOC(=O)CC[C@@H](NC(=O)[C@H](C)NC(=O)CNC(=O)c1ccc[nH]1)C(=O)OCC | ≥ 80 |
